Source: patent publication US20240287138A1, “CYCLIC PEPTIDES FOR INHIBITING TNF RECEPTOR 1 ACTIVITY” (Merck Sharp & Dohme LLC, priority 2023, published 2024)
Numbered stars: 1 amine (or outer) side, 2 acyl side, 3 side chain; on linkers, the order of the positions; unused ones are H or OH. Square brackets hold non-standard residues; d marks the D form. Peptide text beside a SMILES is read from it. Trp(βS-Me,7-OMe) = COc1cccc2c([C@H](C)[C@H](N)C(=O)O)c[nH]c12; X21 = COc1cccc2c([C@H](C)[C@H](N[*:1])C(=O)[*:2])c(C)[nH]c12; Trp(7-Br) = N[C@@H](Cc1c[nH]c2c(Br)cccc12)C(=O)O; Trp(7-CN) = N#Cc1cccc2c(C[C@H](N)C(=O)O)c[nH]c12; Trp(7-Cl) = N[C@@H](Cc1c[nH]c2c(Cl)cccc12)C(=O)O; Phe(3-CONH2) = NC(=O)c1cccc(C[C@H](N)C(=O)O)c1; Phe(3-COOH) = N[C@@H](Cc1cccc(C(=O)O)c1)C(=O)O; Phe(4-CONH2) = NC(=O)c1ccc(C[C@H](N)C(=O)O)cc1; Phe(4-COOH) = N[C@@H](Cc1ccc(C(=O)O)cc1)C(=O)O; X30 = O=C([C@@H](N[*:1])[C@H](O)c1ccncc1)[*:2]; 4Pal(3S-Me) = C[C@@H](c1ccncc1)[C@H](N)C(=O)O; Trp(7-aza) = N[C@@H](Cc1c[nH]c2ncccc12)C(=O)O; dPro(trans-4-F) = O=C(O)[C@H]1C[C@H](F)CN1; Pip(5R-OH) = O=C(O)[C@@H]1CC[C@@H](O)CN1; X1 = O=C([C@@H]1CC[C@H](N[*:1])C1)[*:2]; X31 = O=C(CN(CCc1nnco1)[*:1])[*:2]; Pip(4-aza) = O=C(O)[C@@H]1CNCCN1; 4Pal = N[C@@H](Cc1ccncc1)C(=O)O; NMeE = CN[C@@H](CCC(=O)O)C(=O)O; dHyp = O=C(O)[C@H]1C[C@H](O)CN1; Cit = NC(=O)NCCC[C@H](N)C(=O)O; Ahp(2) = CCCCC[C@H](N)C(=O)O; αMeS = C[C@](N)(CO)C(=O)O; Nle = CCCC[C@H](N)C(=O)O; Sar = CNCC(=O)O

Target: T1, TNFα-induced NF-κB signal transduction pathway (TNFR1 signaling) in THP-1 cells (Homo sapiens, UniProt P19438)
T1 sequence (P19438 30-455): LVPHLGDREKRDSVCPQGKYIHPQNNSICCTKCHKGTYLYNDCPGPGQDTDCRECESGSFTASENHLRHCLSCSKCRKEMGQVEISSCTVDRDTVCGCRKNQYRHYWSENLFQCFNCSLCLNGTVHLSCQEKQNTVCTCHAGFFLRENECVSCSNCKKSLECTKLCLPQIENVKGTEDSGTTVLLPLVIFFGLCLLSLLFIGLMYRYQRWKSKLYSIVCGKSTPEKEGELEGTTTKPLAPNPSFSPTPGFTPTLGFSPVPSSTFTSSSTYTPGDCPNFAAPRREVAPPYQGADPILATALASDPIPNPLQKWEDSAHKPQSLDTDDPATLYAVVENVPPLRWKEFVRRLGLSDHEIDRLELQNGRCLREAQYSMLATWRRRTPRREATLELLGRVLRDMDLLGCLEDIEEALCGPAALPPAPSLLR
Experiment: THP-1 Lucia NF-κB reporter cell assay, inhibition of TNFα-induced NF-κB signaling
Assay type: cell-based
Conditions: THP-1 NF-κB Lucia reporter cells, 10 ng/mL TNFα, 16-18 h, secreted luciferase; read-out: THP-1 IC50
Summary of the method: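 THP-1 Lucia NF-κB cells, 20k/well, no selection antibiotics; peptide pre-inc 1 h 37 °C; + recombinant human TNFα 10 ng/mL final; o.n.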

Structure (SMILES) | IC50
CCCCC[C@@H]1NC(=O)[C@@H]2CC[C@@H](C2)NC(=O)[C@H]([C@@H](C)c2c[nH]c3c(OC)cccc23)NC(=O)CN(C)C(=O)[C@H](Cc2ccc(C(N)=O)cc2)NC(=O)[C@H](Cc2ccc(C(N)=O)cc2)NC(=O)[C@](C)(CO)NC(=O)[C@H](Cc2c[nH]c3c(C#N)cccc23)NC(=O)[C@H](Cc2ccc(C(=O)O)cc2)NC(=O)[C@H](CC(N)=O)NC(=O)[C@H]2C[C@H](O)CN2C(=O)[C@H](Cc2c[nH]c3ccccc23)NC(=O)[C@H](CO)NC(=O)[C@H]([C@H](O)c2ccncc2)NC1=O [SEQ ID NO. 16] (cyclo([Ahp(2)][X30]SW[dHyp]N[Phe(4-COOH)][Trp(7-CN)][αMeS][Phe(4-CONH2)][Phe(4-CONH2)][Sar][Trp(βS-Me,7-OMe)][X1])) | 0.6 nM
CCCC[C@@H]1NC(=O)[C@@H]2CC[C@@H](C2)NC(=O)[C@H]([C@@H](C)c2c[nH]c3c(OC)cccc23)NC(=O)CN(C)C(=O)[C@H](Cc2cccc(C(=O)O)c2)NC(=O)[C@H](Cc2ccc(C(N)=O)cc2)NC(=O)[C@](C)(CO)NC(=O)[C@H](Cc2c[nH]c3c(Cl)cccc23)NC(=O)[C@H](Cc2ccc(C(=O)O)cc2)NC(=O)[C@H](CC(N)=O)NC(=O)[C@H]2C[C@H](O)CN2C(=O)[C@H](Cc2c[nH]c3ccccc23)NC(=O)[C@@H]2CC[C@@H](O)CN2C(=O)[C@H](Cc2ccncc2)NC1=O [SEQ ID NO. 17] (cyclo([4Pal][Pip(5R-OH)]W[dHyp]N[Phe(4-COOH)][Trp(7-Cl)][αMeS][Phe(4-CONH2)][Phe(3-COOH)][Sar][Trp(βS-Me,7-OMe)][X1][Nle])) | 0.8 nM
CCCC[C@@H]1NC(=O)[C@@H]2CC[C@@H](C2)NC(=O)[C@H]([C@@H](C)c2c[nH]c3c(OC)cccc23)NC(=O)CN(C)C(=O)[C@H](Cc2ccc(C(N)=O)cc2)NC(=O)[C@H](Cc2ccc(C(N)=O)cc2)NC(=O)[C@](C)(CO)NC(=O)[C@H](Cc2c[nH]c3c(C#N)cccc23)NC(=O)[C@H](Cc2ccc(C(=O)O)cc2)NC(=O)[C@H](CC(N)=O)NC(=O)[C@H](CCC(=O)O)N(C)C(=O)[C@H](Cc2c[nH]c3ccccc23)NC(=O)[C@@H]2CC[C@@H](O)CN2C(=O)[C@H](Cc2ccncc2)NC1=O [SEQ ID NO. 19] (cyclo([4Pal][Pip(5R-OH)]W[NMeE]N[Phe(4-COOH)][Trp(7-CN)][αMeS][Phe(4-CONH2)][Phe(4-CONH2)][Sar][Trp(βS-Me,7-OMe)][X1][Nle])) | 0.6 nM
CCCC[C@@H]1NC(=O)[C@@H]2CC[C@@H](C2)NC(=O)[C@H]([C@@H](C)c2c[nH]c3c(OC)cccc23)NC(=O)CN(C)C(=O)[C@H](Cc2ccc(C(=O)O)cc2)NC(=O)[C@H](Cc2ccc(C(N)=O)cc2)NC(=O)[C@](C)(CO)NC(=O)[C@H](Cc2c[nH]c3c(Cl)cccc23)NC(=O)[C@H](Cc2ccncc2)NC(=O)[C@H](CC(N)=O)NC(=O)[C@H]2C[C@H](F)CN2C(=O)[C@H](Cc2c[nH]c3ccccc23)NC(=O)[C@@H]2CC[C@@H](O)CN2C(=O)[C@H](Cc2ccncc2)NC1=O [SEQ ID NO. 101] (cyclo([4Pal][Trp(7-Cl)][αMeS][Phe(4-CONH2)][Phe(4-COOH)][Sar][Trp(βS-Me,7-OMe)][X1][Nle][4Pal][Pip(5R-OH)]W[dPro(trans-4-F)]N)) | 0.9 nM
CCCC[C@@H]1NC(=O)[C@@H]2CC[C@@H](C2)NC(=O)[C@H]([C@@H](C)c2c(C)[nH]c3c(OC)cccc23)NC(=O)CN(C)C(=O)[C@H](Cc2ccc(C(=O)O)cc2)NC(=O)[C@H](Cc2ccc(C(N)=O)cc2)NC(=O)[C@](C)(CO)NC(=O)[C@H](Cc2c[nH]c3c(Cl)cccc23)NC(=O)[C@H](Cc2ccc(C(=O)O)cc2)NC(=O)[C@H](CC(N)=O)NC(=O)[C@H]2C[C@H](O)CN2C(=O)[C@H](Cc2c[nH]c3ccccc23)NC(=O)[C@@H]2CC[C@@H](O)CN2C(=O)[C@H](Cc2ccncc2)NC1=O [SEQ ID NO. 106] (cyclo([4Pal][Pip(5R-OH)]W[dHyp]N[Phe(4-COOH)][Trp(7-Cl)][αMeS][Phe(4-CONH2)][Phe(4-COOH)][Sar][X21][X1][Nle])) | 0.6 nM
CCCCC[C@@H]1NC(=O)[C@@H]2CC[C@@H](C2)NC(=O)[C@H]([C@@H](C)c2c[nH]c3c(OC)cccc23)NC(=O)CN(C)C(=O)[C@H](Cc2cccc(C(N)=O)c2)NC(=O)[C@H](Cc2ccc(C(N)=O)cc2)NC(=O)[C@](C)(CO)NC(=O)[C@H](Cc2c[nH]c3c(Br)cccc23)NC(=O)[C@H](Cc2ccc(C(=O)O)cc2)NC(=O)[C@H](CC(N)=O)NC(=O)[C@H]2C[C@H](O)CN2C(=O)[C@H](Cc2c[nH]c3ccccc23)NC(=O)[C@@H]2CNCCN2C(=O)[C@H](Cc2ccncc2)NC1=O [SEQ ID NO. 109] (cyclo([4Pal][Pip(4-aza)]W[dHyp]N[Phe(4-COOH)][Trp(7-Br)][αMeS][Phe(4-CONH2)][Phe(3-CONH2)][Sar][Trp(βS-Me,7-OMe)][X1][Ahp(2)])) | 0.8 nM
CCCCC[C@@H]1NC(=O)[C@@H]2CC[C@@H](C2)NC(=O)[C@H]([C@@H](C)c2c[nH]c3c(OC)cccc23)NC(=O)CN(C)C(=O)[C@H](Cc2ccc(C(N)=O)cc2)NC(=O)[C@H](Cc2ccc(C(N)=O)cc2)NC(=O)[C@](C)(CO)NC(=O)[C@H](Cc2c[nH]c3c(C#N)cccc23)NC(=O)[C@H](Cc2ccc(C(=O)O)cc2)NC(=O)[C@H](CC(N)=O)NC(=O)[C@H]2C[C@H](O)CN2C(=O)[C@H](Cc2c[nH]c3ccccc23)NC(=O)[C@H](CCCNC(N)=O)NC(=O)[C@H]([C@@H](C)c2ccncc2)NC1=O [SEQ ID NO. 110] (cyclo([Ahp(2)][4Pal(3S-Me)][Cit]W[dHyp]N[Phe(4-COOH)][Trp(7-CN)][αMeS][Phe(4-CONH2)][Phe(4-CONH2)][Sar][Trp(βS-Me,7-OMe)][X1])) | 1.2 nM
CCCC[C@@H]1NC(=O)[C@@H]2CC[C@@H](C2)NC(=O)[C@H]([C@@H](C)c2c[nH]c3c(OC)cccc23)NC(=O)CN(C)C(=O)[C@H](Cc2ccc(C(N)=O)cc2)NC(=O)[C@H](Cc2ccc(C(N)=O)cc2)NC(=O)[C@](C)(CO)NC(=O)[C@H](Cc2c[nH]c3c(C#N)cccc23)NC(=O)[C@H](Cc2ccc(C(=O)O)cc2)NC(=O)[C@H](CC(N)=O)NC(=O)[C@H]2C[C@H](F)CN2C(=O)[C@H](Cc2c[nH]c3ccccc23)NC(=O)[C@@H]2CC[C@@H](O)CN2C(=O)[C@H](Cc2ccncc2)NC1=O [SEQ ID NO. 114] (cyclo([4Pal][Pip(5R-OH)]W[dPro(trans-4-F)]N[Phe(4-COOH)][Trp(7-CN)][αMeS][Phe(4-CONH2)][Phe(4-CONH2)][Sar][Trp(βS-Me,7-OMe)][X1][Nle])) | 0.9 nM
CCCC[C@@H]1NC(=O)[C@@H]2CC[C@@H](C2)NC(=O)[C@H]([C@@H](C)c2c[nH]c3c(OC)cccc23)NC(=O)CN(C)C(=O)[C@H](Cc2ccc(C(=O)O)cc2)NC(=O)[C@H](Cc2ccc(C(N)=O)cc2)NC(=O)[C@](C)(CO)NC(=O)[C@H](Cc2c[nH]c3c(C#N)cccc23)NC(=O)[C@H](Cc2ccncc2)NC(=O)[C@H](CC(N)=O)NC(=O)CN(CCc2nnco2)C(=O)[C@H](Cc2c[nH]c3ncccc23)NC(=O)[C@@H]2CC[C@@H](O)CN2C(=O)[C@H](Cc2ccncc2)NC1=O [SEQ ID NO. 121] (cyclo([4Pal][Trp(7-CN)][αMeS][Phe(4-CONH2)][Phe(4-COOH)][Sar][Trp(βS-Me,7-OMe)][X1][Nle][4Pal][Pip(5R-OH)][Trp(7-aza)][X31]N)) | 0.9 nM
